Test results: patent US10143650B2, “Dispersion intended for encapsulating an active product and associated use” (CAPSUM, priority 2012, dated 2018)

Tests used:
[1] = partition coefficient of the active product between membrane phase and internal phase (octanol/water) and ratio R2 over membrane viscosity; format: physicochemical; settings: concentration in octanol over concentration in water
Experimental: The ratio of the partition coefficient Cp of the active product 20 between the membrane 18 and the internal drop 16 is obtained by determining the partition coefficient of this active product 20 between a homologous phase to the intermediate phase forming the membrane 18 and a homologous phase to the internal phase forming the internal drop 16. The ratio Cp is calculated with the following equation: Cp=K=[active in the membrane phase]/[active in the internal phase].
In particular, when the internal drop 16 is aqueous, and when the membrane 18 is oily, the ratio Cp may be estimated by using log P=log K with: Cp=K=[active in octanol]/[active in water].
Further, the value of log P (=log (K)) may be simply evaluated by means of easily accessible molecular modeling software packages on the Internet such as for example on www.molispiration.com, www.vcclab.org/lab/alogps/start.html.
Experimental determination is possible with the following method: an accurate amount of the active is weighed and solubilized in one of the two water or octanol phases. Two equivalent volumes of both phases are then put into contact with stirring. The concentrations of the active product in each of both phases are then measured after thermodynamic equilibrium of the system. This concentration measurement may for example be carried out by directly measuring the absorbance, if the molecule absorbs light, or by liquid chromatography. This measurement is for example carried out at 22° C.
The coefficient K is then determined experimentally by the ratio of the concentration of the active in octanol over that in water.

[2] = leakage of encapsulated active product into the continuous phase (optical absorbance versus time); format: physicochemical
From the text: FIG. 4 is a graph illustrating the absorbance in the continuous phase in a dispersion according to the invention, wherein an active absorbent product was encapsulated in the dispersed phase;
FIG. 5 is a view similar to FIG. 4 for a dispersion according to the invention containing another absorbent active product; and
FIGS. 4 and 5 respectively illustrate the ratio of optical absorbance in the continuous phase 14 versus time for respectively the dispersion of the first example containing dextran, and for the dispersion of the second example containing bovine serum albumin.

[3] = absorbance in continuous phase, after more than one week at 50° C., R1 0.38

**Q.** For CCN(CC)c1ccc2c(-c3ccccc3C(=O)O)c3ccc(=[N+](CC)CC)cc-3oc2c1.[Cl-] [Rhodamine B], which “partition coefficient (K, Cp) of the active product” value [1] is on record?
**A.** 70.8

**Q.** And the “leakage of active product from the dispersed bodies” value ([2]; R2 equal to 3.05, time and temperature not stated)?
**A.** leakage is observed

**Q.** What does the source list for bovine serum albumin?
**A.** partition coefficient (K, Cp) of the active product [1]: less than 10^−3; leakage of active product from the dispersed bodies [2, 3]: no leakage

**Q.** Which “partition coefficient (K, Cp) of the active product” value [1] does the source give for dextran here?
**A.** less than 10^−2

**Q.** What about the “leakage of active product from the dispersed bodies” value [2, 3] of the same molecule?
**A.** no leakage
